# Reference: patent US7169591B1, “Preparation of enantio-specific epoxides” (priority 1999, dated 2007)
# Values joined by “and” are separate entries in the source; they are usually repeats but may differ in a detail not shown here. Identical values can stand only once.
# Tests used:
# alkane hydroxylase = molecular target: T1, alkane hydroxylase (Ectopseudomonas oleovorans, UniProt P12691); details: cited from earlier work
# T1 sequence (P12691 1-401): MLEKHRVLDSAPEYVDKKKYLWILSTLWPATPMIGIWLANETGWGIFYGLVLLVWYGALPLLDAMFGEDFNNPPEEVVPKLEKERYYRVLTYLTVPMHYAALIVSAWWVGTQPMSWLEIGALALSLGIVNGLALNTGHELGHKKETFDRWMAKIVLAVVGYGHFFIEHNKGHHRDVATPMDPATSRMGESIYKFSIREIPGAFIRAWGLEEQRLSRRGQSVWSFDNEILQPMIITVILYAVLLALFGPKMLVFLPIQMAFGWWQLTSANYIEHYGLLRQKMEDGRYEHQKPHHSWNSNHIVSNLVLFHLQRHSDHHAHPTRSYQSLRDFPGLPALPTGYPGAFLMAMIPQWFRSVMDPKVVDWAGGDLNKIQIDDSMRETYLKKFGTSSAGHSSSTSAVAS
# alkene monooxygenase = molecular target: T2, alkene monooxygenase (Xanthobacter versatilis, UniProt O87082); details: cited from earlier work
# T2 sequence (O87082 1-497): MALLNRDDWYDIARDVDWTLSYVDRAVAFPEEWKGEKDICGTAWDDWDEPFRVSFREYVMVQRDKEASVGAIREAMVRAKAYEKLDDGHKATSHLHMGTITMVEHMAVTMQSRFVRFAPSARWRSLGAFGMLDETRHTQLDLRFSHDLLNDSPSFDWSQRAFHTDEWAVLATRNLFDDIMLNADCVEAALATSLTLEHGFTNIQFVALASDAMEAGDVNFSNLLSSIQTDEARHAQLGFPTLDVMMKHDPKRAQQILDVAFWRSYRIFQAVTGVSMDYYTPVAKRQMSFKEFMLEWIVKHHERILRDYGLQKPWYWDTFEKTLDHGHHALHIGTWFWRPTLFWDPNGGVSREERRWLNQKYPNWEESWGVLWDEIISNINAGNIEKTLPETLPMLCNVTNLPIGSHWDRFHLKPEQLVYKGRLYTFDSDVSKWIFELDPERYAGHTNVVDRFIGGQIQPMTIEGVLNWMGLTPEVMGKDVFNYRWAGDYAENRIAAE
# [1] = molecular target: soluble methane monooxygenase (MMO) (Methylosinus trichosporium, UniProt P27353); details: cited from earlier work
# soluble methane monooxygenase (MMO), sequence (P27353 whole entry): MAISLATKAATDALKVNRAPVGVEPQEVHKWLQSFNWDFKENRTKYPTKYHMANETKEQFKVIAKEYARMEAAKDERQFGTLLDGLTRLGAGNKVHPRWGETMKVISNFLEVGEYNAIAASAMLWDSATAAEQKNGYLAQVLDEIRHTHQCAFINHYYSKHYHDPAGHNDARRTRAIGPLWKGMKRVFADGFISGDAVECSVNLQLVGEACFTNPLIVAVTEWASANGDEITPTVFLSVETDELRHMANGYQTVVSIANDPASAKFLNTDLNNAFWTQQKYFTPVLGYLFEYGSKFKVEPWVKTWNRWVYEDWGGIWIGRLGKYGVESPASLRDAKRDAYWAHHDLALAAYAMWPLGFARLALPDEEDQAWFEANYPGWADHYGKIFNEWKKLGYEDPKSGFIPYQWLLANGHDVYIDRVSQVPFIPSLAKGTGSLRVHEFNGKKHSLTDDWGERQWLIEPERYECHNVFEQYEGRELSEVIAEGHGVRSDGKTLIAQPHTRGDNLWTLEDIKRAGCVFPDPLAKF
# soluble methane monooxygenase (MMO), sequence (P27354 whole entry partner): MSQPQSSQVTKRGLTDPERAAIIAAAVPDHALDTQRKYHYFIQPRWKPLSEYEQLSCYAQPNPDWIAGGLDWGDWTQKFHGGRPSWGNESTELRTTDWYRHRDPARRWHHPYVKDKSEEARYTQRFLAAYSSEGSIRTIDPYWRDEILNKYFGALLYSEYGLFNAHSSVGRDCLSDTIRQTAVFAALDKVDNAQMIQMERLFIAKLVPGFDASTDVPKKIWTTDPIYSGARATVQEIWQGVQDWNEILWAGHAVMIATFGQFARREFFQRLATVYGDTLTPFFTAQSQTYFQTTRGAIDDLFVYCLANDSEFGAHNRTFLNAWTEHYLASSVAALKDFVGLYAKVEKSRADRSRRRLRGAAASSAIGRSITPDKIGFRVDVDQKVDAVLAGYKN
# soluble methane monooxygenase (MMO), sequence (P27355 whole entry partner): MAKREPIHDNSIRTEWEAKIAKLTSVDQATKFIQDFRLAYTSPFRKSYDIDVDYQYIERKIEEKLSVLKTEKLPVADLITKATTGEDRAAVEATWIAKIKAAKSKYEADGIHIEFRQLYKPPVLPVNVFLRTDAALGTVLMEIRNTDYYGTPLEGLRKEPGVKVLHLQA
# soluble methane monooxygenase (MMO), sequence (P27356 whole entry partner): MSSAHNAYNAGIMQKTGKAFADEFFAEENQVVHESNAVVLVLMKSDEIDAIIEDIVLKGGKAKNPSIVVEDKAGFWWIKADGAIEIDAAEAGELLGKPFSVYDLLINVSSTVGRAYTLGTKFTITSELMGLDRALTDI
# styrene monooxygenase = molecular target: T3, styrene monooxygenase (Pseudomonas sp, UniProt O50214); details: cited from earlier work
# T3 sequence (O50214 1-415): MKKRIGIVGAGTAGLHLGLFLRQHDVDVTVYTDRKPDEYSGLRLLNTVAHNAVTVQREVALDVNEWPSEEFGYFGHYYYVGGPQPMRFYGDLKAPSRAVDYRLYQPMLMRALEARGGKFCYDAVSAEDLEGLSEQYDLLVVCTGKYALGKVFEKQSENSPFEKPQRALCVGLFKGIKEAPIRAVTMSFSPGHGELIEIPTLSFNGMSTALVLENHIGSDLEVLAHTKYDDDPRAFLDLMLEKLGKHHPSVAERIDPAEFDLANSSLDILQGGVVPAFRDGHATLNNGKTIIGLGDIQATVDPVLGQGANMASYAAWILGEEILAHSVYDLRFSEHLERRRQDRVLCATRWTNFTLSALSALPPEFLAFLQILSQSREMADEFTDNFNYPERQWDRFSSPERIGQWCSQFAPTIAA
# [2] = tested on: Pseudomonas sp. strain ENVPC5; experiment: Enantiomeric ratio of monoepoxides (chiral GC), strain ENVPC5; format: cell-based; details: PC5
# Description: (§1) To determine the ratio of R and S isomers of the epoxides formed from the oxidation of the alkenes, samples were analyzed for the presence of the epoxides and alkenes by gas chromatography as described above. When the epoxide concentration neared its maximum, or when the 80–90% of the substrate was degraded, the enantiomeric ratio of epoxides produced was determined by injecting a sample of the headspace gas onto a GC equipped with a chiral separation column (RT-BDEXSE; Restek, Inc., Bellefonte, Pa.) and a flame ionization detector. The column was maintained at 50° C.
# [3] = tested on: Pseudomonas mendocina KR1 (T4MO); experiment: Enantiomeric ratio of monoepoxides (chiral GC), strain KR1; format: cell-based
# Description: as §1
# [4] = tested on: Burkholderia cepacia G4 (T2MO); experiment: Enantiomeric ratio of monoepoxides (chiral GC), strain G4; format: cell-based
# Description: as §1
# [5] = tested on: Burkholderia sp. strain ENVBF1; experiment: Enantiomeric ratio of monoepoxides (chiral GC), strain ENVBF1; format: cell-based
# Description: as §1
# [6] = tested on: Pseudomonas pickettii PKO1 (T3MO); experiment: Enantiomeric ratio of monoepoxides (chiral GC), strain PKO1; format: cell-based; details: KO1 (PKO1)
# Description: as §1
# T4MO = experiment: Induction of T4MO by alkenes and toluene (FIG. 14); format: cell-based; details: at 120 minutes
# Description: The data points are the average of duplicate samples, with the range shown as error bars. The relative light units registered by the 2-pentene sample at 120 minutes was approximately 10^5.
# wild type organisms = experiment: Alkene oxidation and epoxide detection (GC, PNBP), wild type organisms; format: cell-based; details: all the wild type strains
# Description: (§2) To determine the range of alkenes that could be degraded by the toluene monooxygenase and the degradation kinetics of the toluene monooxygenases, 5-ml aliquots of the resuspended cultures were dispensed to 25-ml serum vials and crimp sealed with Teflon™ faced septa. Gaseous alkene substrates were added as pure compounds by using a gas-tight syringe, and other alkene substrates were added from stock solutions (20% in dimethylformamide). The amount of individual alkene substrates added were as follows: 1-butene, 2-butene, and 1,3-butadiene, 2.2 μM; epoxy butane, 1,3-butadiene monoxide, and epichlorohydrine, 8 μM; 1- and 2-pentene, 9 μM; hexene, 4 μM; octadiene, 4.5 μM; 2-chloropropene, 11 μM; and, 2,3-dichloropropene, 12 μM unless otherwise indicated. The serum vials were then placed horizontally on a rotary shaker operating at 100 rpm. During incubation the temperature was maintained between 20–22° C. for the Pseudomonads and at 37° C. for E. coli. The serum vials were periodically removed from the shaker and a 10–25 μl portion of the headspace gas was withdrawn through the septa and injected onto a gas chromatograph (GC) equipped with a 30 m Vocol column (Supelco Inc. Bellefonte, Pa.) maintained at 160° C., and a flame ionization detector. This allowed the monitoring of both the alkene compounds as well as the epoxide products. The same protocol was used to detect the formation of 1,2-butanediol and butadiene diepoxide, except that 1 μl of the culture media was injected onto the column rather than the headspace gas.
# The only epoxides relevant to this study that were commercially available were 1,3-butadiene mono-, and diepoxide. These were used in GC analyses to determine retention times and to quantitate the conversion of 1,3-butadiene to the corresponding epoxides. To verify that the observed peaks were epoxides, a modification of the method of van Hylckama et al. (van Hylckama et al., Appl. Environ. Microbiol., 62:3304–3312 (1996)) was used, whereby epoxides were conjugated with PNBP to form intensely colored adducts of the epoxides. Serum vials were prepared as before, except that prior to sealing the vials, Durham tubes were placed inside the vials, with the opening of the Durham tube extending out of the liquid. The substrate was then added and the vials were incubated with moderate shaking at a 45° angle to prevent the culture liquid from entering the Durham tube. The transformation of the alkenes was monitored by GC analysis. […] The vials were then allowed to incubate for 8 hours before they were opened and the epoxide containing PNBP withdrawn. The total volume of PNBP solution was combined with an equal volume of acetone-triethylamine (50:50) and mixed rapidly. Epoxide/PNBP adducts were detected by spectra analysis (400–700 nm).
# [7] = tested on: Pseudomonas mendocina ENVpmx1; experiment: Alkene degradation assay, T4MO deficient strain Pseudomonas mendocina ENVpmx1; format: cell-based
# Text: (§3) Pseudomonas mendocina KR1 (Yen et al., J. Bacteriol., 173:5315–5327 (1991)), the T4MO mutant of KR1 Pseudomonas mendocina ENVpmx1 (McClay et al., The 97th Annual Meeting of ASM, Abstract K36, page 348 (1997)), Pseudomonas pickettii PKO1 (Byrne et al., Gene, 154:65–70 (1995)), Burkholderia cepacia G4 (Shields et al., Appl. Environ. Microbiol., 55:1624–1629 (1989)), Burkholderia sp. strain ENVBF1 (McClay et al., Appl. Environ. Microbiol., 62:2716–2722 (1996)), and Pseudomonas sp. strain ENVPC5 (McClay et al., 1996, supra) were cultured overnight at 30° C. in shake flasks containing basal salts medium (BSM; 10) supplemented with 0.4% sodium glutamate. Toluene was included in the vapor phase when induction of the toluene oxygenases was desired. Prior to substrate degradation assays the cultures were harvested by centrifugation and resuspended in BSM to an optical density at 550 nm (OD550) of 2, unless otherwise indicated. A standard curve of optical density vs. protein concentration for each strain was used to calculate the amount of protein per ml of the resuspended cultures.
# as §2
# [8] = tested on: Burkholderia sp. strain ENVBF1; experiment: Alkene degradation assay, whole cells of Burkholderia sp. strain ENVBF1 (T4MO); format: cell-based; details: ENVBF1; following 30 minutes incubation
# Text: as §3, §2
# [9] = tested on: Pseudomonas mendocina KR1; experiment: Alkene degradation assay, whole cells of Pseudomonas mendocina KR1 (T4MO); format: cell-based
# Text: as §3, §2
# Burkholderia cepacia G4 = experiment: Alkene degradation assay, whole cells of Burkholderia cepacia G4 (T2MO); format: cell-based; details: G4; following 30 minutes incubation
# Text: as §3, §2
# [10] = tested on: Pseudomonas sp. strain ENVPC5; experiment: Alkene degradation assay, whole cells of Pseudomonas sp. strain ENVPC5 (T4MO); format: cell-based; details: following 30 minutes incubation
# Text: as §3, §2
# [11] = tested on: E. coli (pRS202) expressing T4MO; experiment: Alkene degradation assay, E. coli (pRS202) expressing T4MO; format: cell-based, Escherichia coli DH10B
# Description: Escherichia coli DH10B containing the plasmid pRS202 (Pikus et al., Biochemistry, 35:9106–9119 (1996); Pikus et al., Biochemistry, 36:9283–9289 (1997)) was prepared in a similar manner except it was grown at 37° C. in LB media, and was resuspended to an OD550 of 4 in LB media with 0.3–1 mM IPTG to induce expression of T4MO.
# as §2
structure (smiles),measurement,setting,value
"C=CCCCCC1CO1 (stereo not shown) [7,8-epoxy-1-octene]",enantiomeric purity of the (R) epoxide formed,alkane hydroxylase,83%
C=CCCl [3-chloropropene],(S) epoxide formed,alkene monooxygenase,80%
"C=CCCCCC=C [1,7-octadiene]",enantiomeric purity of the (R) epoxide formed,alkane hydroxylase,98%
C1=CCCCC1 [cyclohexene],oxidation by MMO,[1],unable to oxidize
C=Cc1ccccc1 [styrene],enantiomer excess of (S)-styrene oxide formed,styrene monooxygenase,> 99%
C=CCC [1-butene],"monoepoxide formed, R enantiomer",[2],11% and 11.3%
same,"monoepoxide formed, S enantiomer",[2],89% and 88.7%
same,R isomer formed,alkene monooxygenase,94%
same,"monoepoxide formed, R enantiomer",[3],0%
same,"monoepoxide formed, R enantiomer",[4],6.5%
same,"monoepoxide formed, S enantiomer",[4],93.5%
same,"monoepoxide formed, R enantiomer",[5],9.8%
same,"monoepoxide formed, S enantiomer",[5],90.2%
same,"monoepoxide formed, R enantiomer",[6],8.3%
same,"monoepoxide formed, S enantiomer",[6],92.7%
C=CC(C)C [3-methyl-butene],oxidation by MMO,[1],unable to oxidize
CC=CCC [2-pentene],"induction of T4MO, relative light units",T4MO,approximately 10^5 relative light units
same,degradation,wild type organisms,efficiently degraded
same,degradation compared with the wild type strains,[7],more rapidly and to a greater extent than the wild type strains
same,"Specific activity of toluene monooxygenase, substrate degraded",[8],0.14 μM substrate degraded/minute/mg protein
same,initial oxidation rate,[9],0.33 mM/min/mg protein
same,"Specific activity of toluene monooxygenase, substrate degraded",[9]; following 30 minutes incubation,0.33 μM substrate degraded/minute/mg protein
same,"Specific activity of toluene monooxygenase, substrate degraded",Burkholderia cepacia G4,0.16 μM substrate degraded/minute/mg protein
same,"Specific activity of toluene monooxygenase, substrate degraded",[10],0.18 μM substrate degraded/minute/mg protein
same,degradation by the clone of T4MO,[11],degraded
